Results as given in patent publication US20100317706A1, “HNF4alpha MODULATORS AND METHODS OF USE” (Bumham Institute for Medical Research, priority 2009, published 2010).
Entries after “also recorded” stand apart in the source; their conditions may differ. Values belong to the compound of their own block, whether it stands above or below them.

Legend:
human insulin promoter = assay: Insulin promoter-GFP (ins-GFP transgene) assay in T6PNE cells; type: cell-based; conditions: for repression of insulin promoter activity (qualitative): T6PNE ins-eGFP
Excerpt: Primary β-cells are in short supply and have a strong tendency to undergo apoptosis when manipulated in culture. Therefore, a β-cell model was used for the studies regarding β-cell growth and differentiation. T6PNE cells were derived from human fetal islets and were engineered to express the transcription factors PDX-1, NeuroD1, and E47, which are all present in the human β-cell. […] Titrations were used to measure the mRNA or protein amount of insulin expression. In order to adapt the cell line for HTS assays, a lentiviral vector expressing the insulin promoter-e green fluorescent protein (GFP) cassette ins-GFP transgene was used to infect T6PNE. As a result, compounds that targeted the insulin promoter could be visibly detected by changes in the green channel (observing GFP). […] This increase correlates with that of the endogenous insulin message. Therefore, expression in the transfunctioned cell can be used as a baseline so both up and down regulators of the insulin promoter can be monitored in the screening assays. […] of the insulin promoter are useful for analyzing the governing pathways in diabetes. However, both up and down modulators were screened for. […] Insulin expression was monitored and visualized by the ins-GFP transgene. Hits were determined and dependent on the ability to differentiate between a baseline condition and the corresponding positive or negative control. […]
The HTS was performed in a 384-well format where primed T6PNE cells express the ins-GFP transgene and the test compound was added 24 hours later. […] The Images were then analyzed using algorithms (Jeff Price at the Screening Center at the Burnham Institute). Images of each well were captured in the blue channel (to evaluate cell number), the green channel (a readout for insulin gene expression) and the red channel (to eliminate autofluorescent compounds). […] Furthermore, hits are determined by applying threshold intensity gates on the green channel and counting the number of cells above or below that gate in a given well. […]

HNF1α = HNF1α transcription; type: cell-based
Experimental: HNF1α is a downstream target of HNF4α and has a known binding site on the human insulin gene promoter. […] It is unclear whether HNF4α is modulating the insulin promoter directly or indirectly through a downstream target. Overexpression of HNF1α or HNF4α would overcome the repressive effects of BIM5078. The repressive effect of BIM5078 was lost when it was added to T6PNE cells with high levels of induced E47 (FIG. 10). High E47 levels are thought to resemble the normal state of a (3-cell while low levels of E47 to simulate the stress condition.

HNF4α = target: T1, HNF4α (Homo sapiens, UniProt P41235); assay: HNF4α subcellular localization; type: cell-based
T1 construct: endogenous in cells
T1 sequence (P41235 1-474): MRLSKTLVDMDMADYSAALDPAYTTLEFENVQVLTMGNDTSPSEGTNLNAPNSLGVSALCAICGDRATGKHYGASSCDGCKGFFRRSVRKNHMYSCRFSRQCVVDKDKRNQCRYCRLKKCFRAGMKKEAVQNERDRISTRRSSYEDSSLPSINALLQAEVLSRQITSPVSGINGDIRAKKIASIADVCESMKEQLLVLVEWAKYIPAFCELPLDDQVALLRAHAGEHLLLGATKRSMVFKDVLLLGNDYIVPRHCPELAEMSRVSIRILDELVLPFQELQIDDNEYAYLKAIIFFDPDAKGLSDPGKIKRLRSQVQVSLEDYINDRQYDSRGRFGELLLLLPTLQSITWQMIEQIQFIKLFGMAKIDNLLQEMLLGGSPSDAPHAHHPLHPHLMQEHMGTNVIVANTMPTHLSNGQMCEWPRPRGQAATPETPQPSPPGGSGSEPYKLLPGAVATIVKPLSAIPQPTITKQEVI
Excerpt: Many ligands for nuclear receptor subfamilies induce the translocation of their receptors between the cytoplasm and the nucleus.

[1] = test system: endogenous insulin message; assay: Endogenous insulin message in T6PNE cells; type: cell-based, human
Excerpt: Primary β-cells are in short supply and have a strong tendency to undergo apoptosis when manipulated in culture. Therefore, a β-cell model was used for the studies regarding β-cell growth and differentiation. T6PNE cells were derived from human fetal islets and were engineered to express the transcription factors PDX-1, NeuroD1, and E47, which are all present in the human β-cell. […] Titrations were used to measure the mRNA or protein amount of insulin expression. In order to adapt the cell line for HTS assays, a lentiviral vector expressing the insulin promoter-e green fluorescent protein (GFP) cassette ins-GFP transgene was used to infect T6PNE. As a result, compounds that targeted the insulin promoter could be visibly detected by changes in the green channel (observing GFP). […] Therefore, expression in the transfunctioned cell can be used as a baseline so both up and down regulators of the insulin promoter can be monitored in the screening assays. […] Insulin expression was monitored and visualized by the ins-GFP transgene. Hits were determined and dependent on the ability to differentiate between a baseline condition and the corresponding positive or negative control. […]
A few of these were selected for further evaluation. […] The initial confirmatory assay of BIM5078 was performed by measuring the readout of the insulin-GFP transgene. […]

HBV = assay: HBsAg expression in Huh7 cells transfected with wild type HBV construct (pWTD); type: cell-based, Hepatitis B virus; conditions: GP33 and GP36 doublet bands
Excerpt: BIM5078 is an HNF4α antagonist and can be useful in treatment of diseases involving HNF4α modulation. There are a number of HNF4α binding sites in the HBV genome, including the enhancer region, the core promoter and the polymerase. BIM5078 can downregulate the core and polymerase, and it has been discovered that it can effectively suppress or eliminate HBV proliferation. Also, the HNF4α binding sites are well-conserved and no mutations of these sites have yet been discovered in the various HBV strains. Thus, targeting HNF4α can circumvent the resistance seen with traditional therapies. […] The ability of the HNF4α antagonist BIM5078 to reduce viral production in Huh7 cells transfected with the wild-type HBV construct (pWTD) was tested. […] The large decrease in the two glycosylation forms of the surface antigen was visualized as doublet bands (FIG. 11).

rat HNF4α LBD = target: T2, rat HNF4α LBD (Rattus norvegicus, UniProt P22449); assay: Direct binding by quenching of intrinsic fluorescence of HNF4α LBD; conditions: quenching of Tyr/Trp intrinsic fluorescence
T2 sequence (P22449 147-377 limits assumed): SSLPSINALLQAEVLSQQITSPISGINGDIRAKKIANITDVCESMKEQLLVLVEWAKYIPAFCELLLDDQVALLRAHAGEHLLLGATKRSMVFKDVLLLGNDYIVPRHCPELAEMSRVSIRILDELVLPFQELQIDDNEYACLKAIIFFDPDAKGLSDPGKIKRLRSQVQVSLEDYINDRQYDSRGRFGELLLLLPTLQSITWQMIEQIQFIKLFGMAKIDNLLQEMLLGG
Experimental: FIGS. 12A and 12B show BIM5078 binding to HNF4α ligand-binding domain (LBD). A. Binding of BIM5078 was analyzed by quenching of intrinsic fluorescence of rat HNF4α LBD aromatic amino acids Tyr/Trp. […] B. BIM5078 was docked to rat HNF4α LBD (PDB Code: 1m7w) using the program BioMedCache. […] Moreover, the chloro group of BIM5078 forms a hydrophobic interaction with the side chain of the binding-pocket residue Val 178.

human PPARγ = target: T3, human PPARγ (Homo sapiens, UniProt P37231); assay: PPAR response element (PPRE)-luciferase reporter assay in HeLa cells; type: cell-based; conditions: enhanced by co-transfection with PPARγ expression vector
T3 construct: expressed in transfected cells; host or cells: HeLa cells
T3 sequence (P37231 1-505): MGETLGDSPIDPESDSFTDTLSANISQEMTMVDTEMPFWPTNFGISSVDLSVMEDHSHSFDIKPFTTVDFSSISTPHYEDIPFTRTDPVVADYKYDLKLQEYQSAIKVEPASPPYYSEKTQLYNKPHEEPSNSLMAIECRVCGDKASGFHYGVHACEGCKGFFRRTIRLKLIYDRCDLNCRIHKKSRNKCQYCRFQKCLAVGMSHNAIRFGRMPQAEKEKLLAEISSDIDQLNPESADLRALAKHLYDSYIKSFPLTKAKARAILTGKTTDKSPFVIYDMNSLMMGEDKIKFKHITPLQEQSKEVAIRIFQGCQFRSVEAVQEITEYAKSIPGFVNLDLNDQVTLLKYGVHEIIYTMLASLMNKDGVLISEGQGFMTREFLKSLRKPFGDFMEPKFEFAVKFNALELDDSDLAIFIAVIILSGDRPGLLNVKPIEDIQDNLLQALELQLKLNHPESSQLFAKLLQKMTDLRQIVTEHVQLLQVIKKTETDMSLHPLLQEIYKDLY
Experimental: The core structure of BIM5078, benzimidazole, is related to known PPARγ compounds that functions as agonists or antagonists. BIM5078 was used in a PPAR response element (PPRE)-luciferase reporter assay. HeLa cells were co-transfected with a PPAR response element (PPRE) reporter plasmid and a human PPARγ expression vector. […] Known PPARγ agonists were used as positive controls. The same PPARγ agonist compounds were tested on T6PNE ins-eGFP for their ability to repress the insulin promoter. Known PPARγ agonists are unable to suppress insulin gene transcription. Similarly, other PPAR agonists of the alpha and delta class were also negative in the assay. However, because HNF4α also binds to PPREs, BIM5078's ability to bind HNF4α was further investigated.

[2] = hoFH patients, 10 mg/day added to maximal-dose statin regimen; cited from earlier work

melting point: 154 to 156 °C
SMILES: O=[N+]([O-])c1cccc(S(=O)(=O)n2cnc3ccccc32)c1 [BI-6001, 1-(3-Nitrophenylsulfonyl)-1H-benzo[d]imidazole]

melting point: 148 to 150 °C
SMILES: Cc1nc2ccccc2n1S(=O)(=O)c1cccc([N+](=O)[O-])c1 [BI-6002, 2-Methyl-1-(3-nitrophenylsulfonyl)-1H-benzo[d]imidazole]

melting point: 157 to 159 °C
SMILES: Cc1nc2ccccc2n1C(=O)c1cc([N+](=O)[O-])ccc1Cl [BI-6009, 1-(2-Chloro-5-nitrobenzoyl)-2-methyl-1H-benzo[d]imidazole]

melting point: 149 to 151 °C
SMILES: O=C(c1cc([N+](=O)[O-])ccc1Cl)n1cnc2ccccc21 [BI-6010, 1-(2-Chloro-5-nitrobenzoyl)-1H-benzo[d]imidazole]

melting point: 120 to 122 °C
SMILES: Cc1nc2ccccc2n1C(=O)c1cccc([N+](=O)[O-])c1 [BI-6011, 2-Methyl-1-(3-nitrobenzoyl)-1H-benzo[d]imidazole]

melting point: 133 to 135 °C
SMILES: O=C(c1cccc([N+](=O)[O-])c1)n1cnc2ccccc21 [BI-6012, 1-(3-Nitrobenzoyl)-1H-benzo[d]imidazole]

melting point: 110 to 112 °C
SMILES: CCOC(=O)c1ccc(Cl)c(S(=O)(=O)n2c(C)nc3ccccc32)c1 [BI-6013, 1-(5-Carbethoxy-2-chlorophenylsulfonyl)-2-methyl-1H-benzo[d]imidazole]

melting point: 159 to 161 °C
SMILES: Cc1ccc([N+](=O)[O-])cc1S(=O)(=O)n1cnc2ccccc21 [BI-6016, 1-(2-Methyl-5-nitrobenzenesulfonyl)benzimidazole]

SMILES: Cc1nc2ccccc2n1S(=O)(=O)c1cc([N+](=O)[O-])ccc1Cl [BIM5078, 1-[(2′-chloro-5-nitrophenyl)sulfonyl]-2-methyl-1H-benzimidazole]
suppression of GFP expression (insulin-GFP transgene) (human insulin promoter; 5 μM, T6PNE cells): up to 30 fold | repression of insulin promoter activity (qualitative) (human insulin promoter): downregulator of human insulin promoter activity | effect on HNF1α transcription (HNF1α): decrease the HNF1α transcription | localization of HNF4α upon compound addition (HNF4α): localized entirely in the nucleus | repression of insulin message ([1]; 5 μM, insulin message induced by 1 μM 4-hydroxytamoxifen): 6 fold | repressive effect on insulin expression at high E47 ([1]; T6PNE cells with high levels of induced E47 (high 4OHT)): lost | HBV surface antigen (HBsAg) level (HBV): decreased the HBsAg protein expression; also recorded: decreased their levels of surface antigen | Kd (rat HNF4α LBD): 0.0119 µM | activation of PPRE reporter (human PPARγ): activated the PPRE

SMILES: O=C1[C@H](CC[C@H](O)c2ccc(F)cc2)[C@@H](c2ccc(O)cc2)N1c1ccc(F)cc1 [ezetimibe]
total reduction of LDL-C levels [2]: 27%

SMILES: CCCCCCCCCCCCCCCC(=O)O [palmitic acid, reference compound]
repression of insulin promoter activity (qualitative) (human insulin promoter): suppresses the insulin promoter activity in a dose-dependent fashion
